Experimental findings from PubChem BioAssay (NCI) are described below.

Assay in all cases: DTP human tumour cell line panel, 48 h
Assay [1] concerns A498 renal.
In assay [2] the test system is A549 NSCLC.
The test system of assay [3] is HCT-116 colon.
Assay [4] concerns HOP-92 NSCLC.
Assay [5] has as its system NCI-H522 lung.
In assay [6] the test system is SK-MEL-28 melanoma.
For assay [7], the system named is SK-OV-3 ovarian.
For assay [8], the system named is SNB-19 CNS.
For assay [9], the system named is UACC-257 melanoma.
For assay [10], the system named is UACC-62 melanoma.

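Cells were grown in 96-well plates and exposed to each compound for 48 hours at five concentrations; endpoints were interpolated linearly between bracketing concentrations, or set to the highest concentration if not reached. Here, GI50 denotes the concentration required for 50% inhibition of growth. TGI: concentration producing complete growth inhibition.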

Take `CCN1C(=O)N(CC)C2C1NN=c1s/c(=C\c3cccs3)c(=O)n12` (stereo not drawn): the GI50 in assay [1] was 0.021 µM; in assay [2], 0.244 µM; in [3], 0.0903 µM; in assay [4], over 25.8 µM; in assay [5] it was 0.0974 µM; in assay [7], 0.649 µM. For the same molecule, the GI50 in [8] was 0.506 µM; in [9], over 100 µM. Further, the TGI was 0.0813 µM in assay [1]; over 100 µM in [2]; over 100 µM in assay [3]; over 100 µM in assay [4]; over 100 µM in [5]; over 100 µM in [6]. Moreover, the TGI in assay [7], in assay [8], in assay [9] and in assay [10] was over 100 µM each time.

In the case of `COc1cc2c3c(n(CCCCNC(=O)OC(C)(C)C)c(=O)c2cc1OC)-c1cc2c(cc1C3=O)OCO2`, the GI50 in assay [1] is over 100 µM; in assay [2], over 100 µM; in [3], over 100 µM; in assay [4], 60.3 µM; in assay [5], over 100 µM; in [6], over 100 µM. The GI50 in assay [7], in [8], in assay [9] and in assay [10] was over 100 µM each time. For the same molecule, the TGI in assay [1], in assay [2], in [3], in assay [4], in [5] and in [6] was over 100 µM each time. Besides, the TGI in assay [7], in [8], in [9] and in assay [10] was over 100 µM throughout.

As for `CN(C)C[C@H]1CCn2c(c(C3=C(c4cn(C)c5ccccc45)C(=O)NC3=O)c3ccccc32)C1`, the GI50 is 3.84 µM in assay [1]; 5.11 µM in assay [2]; 3.47 µM in assay [3]; 4.19 µM in assay [4]; 4.86 µM in assay [5]; 4.25 µM in assay [6]. For the same molecule, the GI50 in [7] was 5.17 µM; in assay [8], 5.65 µM; in [9] it was 4.45 µM; in assay [10] it was 4.15 µM. The TGI in [1] is 9.08 µM; in assay [2] it was 11.7 µM; in assay [3] it was 7.27 µM; in [4] it was 10.9 µM; in [5], 9.17 µM; in assay [6], 8.02 µM. For the same molecule, the TGI in assay [7] worked out at 11.5 µM; in assay [8], 16.6 µM; in [9], 8.45 µM; in assay [10] it was 7.98 µM.

For the molecule `CC/C=C\C[C@H](O)C/C=C1/C(=O)C=C[C@@H]1C/C=C\CCCC(=O)OC(C)C`, the GI50 in assay [1] is 3 µM; in assay [2], 2.48 µM; in assay [3], 0.245 µM; in assay [4] it was 2.25 µM; in [5] it was 1.25 µM; in assay [6], 1.41 µM. Further, the GI50 in [7] is 5.01 µM; in [8], 3.3 µM; in assay [9], 2.16 µM; in assay [10], 1.37 µM. Also, the TGI in assay [1] was determined as 8.12 µM; in assay [2], 5.88 µM; in [3], 0.64 µM; in [4] it was 4.88 µM; in assay [5], 2.88 µM; in [6] it was 3.05 µM. The TGI came to 16.1 µM in assay [7], 12.8 µM in assay [8], 5.49 µM in assay [9] and 3.16 µM in [10].

As to `C=C1C(=O)O[C@H]2[C@H]1CC/C(COC(=O)c1cn(C)c3ccccc13)=C\CC[C@@]1(C)O[C@@H]21`, the GI50 is 1.59 µM in [1]; 1.82 µM in assay [2]; 1.02 µM in assay [3]; 0.365 µM in [4]; 0.399 µM in assay [5]; 1.55 µM in [6]. Also, the GI50 in assay [7] is 4.33 µM; in assay [8] it was 1.59 µM; in assay [9], 1.32 µM; in assay [10], 1.26 µM. For the same molecule, the TGI was 3.05 µM in assay [1]; 4.23 µM in [2]; 2.24 µM in assay [3]; 2 µM in [4]; 1.62 µM in [5]; 3.08 µM in assay [6]. For the same molecule, the TGI in [7] stood at 15 µM; in assay [8], 3.64 µM; in [9] it was 2.65 µM; in [10], 2.74 µM.

As to `COc1ccc(-c2nsc3c2NC(=O)CC3c2ccc3c(c2)OCCO3)cc1` (stereo not drawn), the GI50 was 0.212 µM in assay [1]; 0.603 µM in assay [2]; 0.526 µM in assay [3]; 0.356 µM in assay [4]; 0.551 µM in [5]; 2.7 µM in assay [6]. In addition, the GI50 is 0.476 µM in assay [7], 0.924 µM in [8], 0.981 µM in assay [9] and 0.482 µM in assay [10]. Besides, the TGI in [1] is 1.03 µM; in assay [2], over 100 µM; in [3], over 100 µM; in [4], over 100 µM; in [5] it was over 100 µM; in assay [6], over 100 µM. The TGI in [7] was 8.46 µM; in [8], over 100 µM; in [9], over 100 µM; in assay [10], over 100 µM.

In the case of `CCNc1cc2oc(=O)cc(C(F)(F)F)c2cc1C`, the TGI in assay [1], in assay [2], in [3], in assay [4], in assay [5] and in assay [6] was over 100 µM each time. In addition, the TGI in assay [7], in assay [8], in [9] and in assay [10] was over 100 µM in each case.

Regarding `O=C1NCN(c2ccccc2)C12CCN(CCCC(c1ccc(F)cc1)c1ccc(F)cc1)CC2`, the GI50 was 1.18 µM in assay [1]; 2.56 µM in [2]; 1.58 µM in assay [3]; 0.397 µM in [4]; 1.51 µM in [5]; 1.62 µM in [6]. Moreover, the GI50 was 4.2 µM in assay [7], 2.99 µM in assay [8], 1.59 µM in assay [9] and 1.68 µM in [10]. In addition, the TGI was 4.94 µM in [1]; 9.68 µM in assay [2]; 2.96 µM in assay [3]; 2.62 µM in assay [4]; 2.93 µM in assay [5]; 3.1 µM in assay [6]. Besides, the TGI in assay [7] was 14.7 µM; in [8] it was 12.8 µM; in assay [9], 3.15 µM; in assay [10] it was 3.15 µM.
